Patent US20260097060A1, “PHARMACEUTICAL COMPOSITION COMPRISING ENAVOGLIFLOZIN FOR PREVENTING OR TREATING CARDIOVASCULAR AGING DISEASES” (DAEWOONG PHARMACEUTICAL CO., LTD., priority 2022, published 2026)

Key:
[1] = test system: porcine coronary artery rings; assay: Evaluation of vascular function (bradykinin-induced relaxation of coronary artery rings, organ chamber); conditions: for bradykinin concentration at which vasorelaxation was significantly increased compared to nanoplastics alone: nanoplastics + 1 μM test drug
Procedure: Vascular endothelial cells play an important role in maintaining vascular homeostasis, but senescence is known to cause vascular dysfunction. Therefore, vascular reactivity of vascular endothelial cells was evaluated to see whether enavogliflozin prevents vascular dysfunction caused by the exposure to nanoplastics. In addition, the evaluation was performed together with the competing material, empagliflozin, and thus their effects were compared.
Specifically, the left anterior descending coronary artery of the porcine heart was resected into rings with a size of 2 to 3 mm. An experiment was conducted with a control, a group treated with 10 µg/mL of nanoplastics, groups treated with […] of nanoplastics+different concentrations of enavogliflozin (0.01, 0.1, and 1 μM), and a group treated with 10 µg/mL of nanoplastics+[…] empagliflozin. The coronary artery rings were placed in Crabb's solution at 37° C. in an organ chamber (95% 02, 5% CO2) to measure changes in isometric tension. The viability of each coronary ring was confirmed by constant […] loading at 5 g for 90 minutes and repeated contractions with up to 80 mM KCl. After washing for 30 minutes, the coronary artery rings were constricted to approximately 80% (maximum contraction) using the thromboxane mimetic U46619 and treated with bradykinin. The relaxation rate of blood vessels in relation to the concentration of bradykinin was then calculated. The results are shown in the graph of FIG. 10.
For statistical data analysis, Prism 5.03 software (GraphPad Software Inc., San Diego, CA, USA) was used. The test results are expressed as the mean±standard error of the mean (SEM). The statistical method was to conduct a two-way ANOVA to verify the difference between groups, and a post hoc test for each type was performed using the verification method with the Bonferroni function. The significance level was set to be p<0.05.
Bradykinin is a biomaterial, and when a bradykinin receptor is activated, endothelial nitric oxide synthase (eNOS) is activated, releasing nitric oxide (NO) and relaxing blood vessels.

eNOS = assay: Measurement of expression of eNOS (western blot); format: cell-based, porcine; conditions: nanoplastics + enavogliflozin 0.01, 0.1 and 1 μM, 24 hours
Procedure: Reduced eNOS expression is a common feature in endothelial senescence, and is known to cause endothelial dysfunction. Here, the expression of eNOS was measured, thereby confirming that enavogliflozin improves the damage to the endothelial function caused by the exposure to nanoplastics.
Specifically, the cells were seeded at 1×10^5 cells/well in a 6-well plate. The cells were cultured in DMEM containing 10% FBS, penicillin (100 U/mL), streptomycin (100 U/mL), and fungizone ([…]) in a CO2 incubator at 37° C. […]
To lyse the porcine coronary artery endothelial cells, 1×RIPA buffer was added to each well and the cells were lysed for 10 minutes. […] Protein quantification of the obtained cell lysate was measured using Bio-Rad DC protein reagent. […]
After eNOS (1:1,000) and 3-actin (1:1,000) as primary antibodies were reacted at 4° C. for 24 hours, the resulting product was washed 3 to 5 times with 1×TBS-T buffer for 10 minutes. […] Protein bands were treated with an ECL solution and detected using Amersham imager 680.
(§1) For statistical data analysis, Prism 5.03 software (GraphPad Software Inc., San Diego, CA, USA) was used. The test results are expressed as the mean±standard error of the mean (SEM). […]

[2] = test system: porcine coronary artery rings and coronary artery-derived endothelial cells; assay: Evaluation of β-galactosidase (SA-β-Gal) activity (X-gal staining); format: cell-based; conditions: 10 µg/mL nanoplastics + enavogliflozin 0.01, 0.1 and 1 μM, 24 hours, vs nanoplastics
Procedure: Senescence-related β-galactosidase (SA-β-Gal) activity is the characteristic of senescent cells, and used as a histochemical marker for senescence.
Specifically, the porcine coronary artery was cut into a size of 2 to 3 mm to form coronary artery rings. Next, the coronary artery rings were divided into a control, a group treated with 10 µg/mL of nanoplastics, and groups treated with 10 µg/mL of the nanoparticles+different concentrations of enavogliflozin (0.01, 0.1, and 1 μM) to perform the experiment. After 24-hour culture, the cells were fixed with 4% formaldehyde, and stained with an X-gal dye to allow a reaction for one day.
Subsequently, the coronary artery rings were immersed in an optimal cutting temperature (OCT) solution (Leica Biosystems) and cut to 10 μm sections using a cryotome at −25° C. and observed under a microscope. The results are shown in the photograph in FIG. 5. In addition, the evaluation of β-galactosidase activity in endothelial cells derived from the porcine coronary artery is as follows. […]
as §1

[3] = test system: reactive oxygen species (ROS); assay: Evaluation of oxidative stress (ROS, DCF-DA and DHE fluorescence); format: cell-based, porcine; conditions: 10 µg/mL nanoplastics + enavogliflozin 0.01, 0.1 and 1 μM
Procedure: Oxidative stress was measured using dihydroethidium (DHE) and 2′,7′-dichlorodihydrofluorescein diacetate (DCF-DA).
Specifically, porcine coronary artery endothelial cells were seeded at 1×10^4 cells/well in a black 96-well plate. The cells were divided into a control, a group treated with 10 µg/mL of nanoplastics, and groups treated with 10 µg/mL of the nanoparticles+different concentrations of enavogliflozin (0.01, 0.1, and 1 μM) to perform the experiment. The cells were incubated in DMEM containing 10% FBS, penicillin (100 U/mL), streptomycin (100 U/mL), and fungizone ([…]) in a CO2 incubator at 37° C. After 24-hour incubation, the amount of reactive oxygen species (ROS) produced was measured by fluorescent absorbance (excitation/emission 485/535 nm).
To measure the ROS produced also in the coronary artery rings, the coronary artery rings were treated with samples for each group, and immersed in a frame containing an OCT solution (Leica Biosystems) and frozen in liquid nitrogen. The frozen result was cut into […] sections using a cryotome, and the sections were stained with DHE (10 μM) and incubated at 37° C. for 45 minutes, washed with PBS, and then observed using a fluorescence microscope.
as §1

[4] = Dissolution test (Korean Pharmacopoeia method 2, paddle method); format: physicochemical
Procedure: Since the dissolution rate of the active ingredient in the pharmaceutical composition affects the maximum blood concentration (Cmax) and the blood concentration-area under the blood concentration-time curve (AUC) when administering the drug, to achieve appropriate Cmax and AUC, it is important to adjust the dissolution rate of the pharmaceutical composition. Since enavogliflozin has a Tmax of 1 to 2 hours, the drug absorption rate in the stomach is considered important. The above dissolution rate was measured under the condition of the dissolved solution 1.2 in accordance with the dissolution test method 2 of the Korean Pharmacopoeia (paddle method). For specific conditions, refer to the following experimental examples.

[5] = test system: Nox2 and p22phox, membrane catalytic subunits of NADPH oxidase; assay: Expression of oxidative stress-associated markers (western blot); format: cell-based, porcine; conditions: nanoplastics + enavogliflozin 0.01, 0.1 and 1 μM, 24 hours
Procedure: In the porcine coronary artery endothelial cells, it is known that NADPH oxidase produces a peroxide in endothelial cells to cause cellular senescence and endothelial dysfunction. Oxidative stress in cells was assessed by measuring the expression of Nox2 and p22phox, which are membrane catalytic subunits of the NAPDH oxidase.
(§2) Specifically, the cells were seeded at 1×10^5 cells/well in a 6-well plate. The cells were incubated in DMEM containing 10% FBS, penicillin (100 U/mL), streptomycin (100 U/mL), and fungizone ([…]) in a CO2 incubator at 37° C. The cells were divided into a control, a group treated with 10 µg/mL of nanoplastics, and groups treated with nanoplastics+different concentrations of enavogliflozin (0.01, 0.1, and 1 μM), treated with a sample, and then incubated for 24 hours.
To lyse the porcine coronary artery endothelial cells, 1×RIPA buffer was added to each well and the cells were lysed for 10 minutes. The cells were scraped with a scraper and centrifuged at 14,000 rpm and 4° C. for 15 minutes. Protein quantification of the obtained cell lysate was measured using Bio-Rad DC protein reagent. Analysis was performed by equally loading […] of protein. […]
as §1

[6] = test system: porcine coronary artery endothelial cells; assay: Evaluation of cell proliferation effect (MTS); format: cell-based; conditions: nanoplastics + enavogliflozin 0.01, 0.1 and 1 μM, 24 hours, vs nanoplastics
Procedure: Cell cycle arrest is one of the main features of cellular senescence. It was confirmed whether enavogliflozin could improve decreased proliferation of endothelial cells, that is, cellular senescence, caused by the exposure to nanoplastics.
Specifically, after extracting the porcine coronary artery, the porcine coronary artery was treated with collagenase for 20 minutes and centrifuged to obtain coronary artery endothelial cells. The cells were seeded at 1×10^4 cells/well in a 96-well plate. The cells were incubated in DMEM containing 10% FBS, penicillin (100 U/mL), streptomycin (100 U/mL), and fungizone ([…]) in a 5% CO2 incubator at 37° C. The cells were divided into a control, a group treated with 10 µg/mL of nanoplastics, and groups treated with the nanoparticles+different concentrations of enavogliflozin (0.01, 0.1, and 1 μM) to perform the experiment, and the cell proliferation effect was measured using a CellTiter 96 Aqueous One Solution Cell Proliferation Assay (Promega Corporation, USA) kit. Samples were treated and incubated for 24 hours, and treated with an MTS tetrazolium solution (20 μL/well) to allow a reaction for 3 hours, and then absorbance was measured at 490 nm using an Enspire Multilabel Reader (Perkin Elmer Ltd.).
For statistical data analysis, Prism 5.03 software (GraphPad Software Inc., San Diego, CA, USA) was used. […]

Pharmacokinetics (Tmax) = format: in vivo; conditions: blood, oral
[7] = test system: cellular senescence markers p53 and p21; assay: Expression of endothelial cell senescence markers (western blot); format: cell-based, porcine; conditions: nanoplastics + enavogliflozin 0.01, 0.1 and 1 μM, 24 hours
Procedure: The expression of cellular senescence markers p53 and p21 was confirmed in porcine coronary artery endothelial cells.
as §2, with “were cultured” for “were incubated”, “10 μg/mL” for “10 µg/mL”, “with the nanoparticles+different” for “with nanoplastics+different”, “μM), and then the cells were” for “μM),”, “with samples” for “with a sample,”, “and” for “and then”
To lyse the porcine coronary artery endothelial cells, 1×RIPA buffer was added to each well and the cells were lysed for 10 minutes. The cells were scraped with a scraper and centrifuged at 14,000 rpm and 4° C. for 15 minutes. Protein quantification of the obtained cell lysate was measured using Bio-Rad DC protein reagent. Analysis was performed by equally loading 15 g of protein.
After reacting with p53 (1:1,000), p21 (1:1,000), and β-actin (1:1,000) as primary antibodies at 4° C. for 24 hours, the cells were washed 3 to 5 times with 1×TBS-T buffer for 10 minutes. […]
as §1

30-minute dissolution rate ([4]; average particle size of enavogliflozin) | Tmax (Pharmacokinetics (Tmax)) [h] | SMILES | bradykinin concentration at which vasorelaxation was significantly increased compared to nanoplastics alone [1] [nM] | eNOS expression (eNOS) | bradykinin-induced vasorelaxation ([1]; 10 µg/mL nanoplastics + enavogliflozin 0.01, 0.1 and 1 μM, vs nanoplastics alone) | β-galactosidase (SA-β-Gal) activity [2] | fluorescence intensity of DCF-DA (ROS production) [3] | fluorescence intensity of DHE (ROS production) [3] | 5-minute dissolution rate ([4]; average particle size of enavogliflozin greater than 15 m) | expression of Nox2 [5] | expression of p22phox [5] | cell proliferation [6] | expression of p21 protein [7] | expression of p53 protein [7]
– | – | OC[C@H]1O[C@@H](c2ccc(Cl)c(Cc3ccc(O[C@H]4CCOC4)cc3)c2)[C@H](O)[C@@H](O)[C@@H]1O [empagliflozin, reference compound] | ≥ 30 | – | – | – | – | – | – | – | – | – | – | –
less than 80% | 1 to 2 | OC[C@H]1O[C@@H](c2cc(Cc3ccc(C4CC4)cc3)c(Cl)c3c2CCO3)[C@H](O)[C@@H](O)[C@@H]1O [enavogliflozin] | ≥ 0.3 | significantly increase | significantly increased | significantly reduced | significantly decreased | significantly decreased | less than 40 % of the total content of enavogliflozin | significantly decreased in a concentration-dependent manner | significantly decreased in a concentration-dependent manner | improved | significantly decreased in a concentration-dependent manner | significantly decreased in a concentration-dependent manner
